Assays:
[1] = target: T1, Protein HGH1 homolog (HGH1) (Homo sapiens, UniProt Q9BTY7); experiment: SILAC competitive profiling with probe 24c in MCF7 lysates: HGH1; type: binding; details: 1 h, then 10 µM 24c
T1 construct: 1,522 proteins were enriched from MCF7 cells by 10 μM probe 24c; endogenous in cells; host or cells: MCF7
Text: In our efforts to determine the direct molecular targets of deoxyelephantopin we first performed a gel-based competitive in situ proteomic profiling assay[41] […] While the greater conformational flexibility of probe 24c could potentially lead to more promiscuous target engagement relatively to deoxyelephantopin, it was favoured based on the fact that an alkyne moiety appended to the rigid scaffold of deoxyelephantopin may hinder some of its interactions. MCF7 cells were pretreated with various concentrations of deoxyelephantopin for 4 h, harvested, lysed and the lysates were treated with the fluorogenic probe 24c-Cy3 (10 μM; Supplementary Fig. 10). […] Furthermore, cells were pretreated with 20 μM concentration of deoxyelephantopin or 24c and the proteomic profiles were compared (Fig. 6b, Supplementary Fig. 11). Multiple bands were detected that were equally competed by both DEP and 24c, thus again confirming that 24c can be used as an acceptable clickable analogue of deoxyelephantopin in pulldown assays. Having established the optimal labelling conditions by SDS–PAGE, we next carried out a mass spectrometry-based competitive profiling assay[42] coupled with the method of stable isotope labelling of amino acids in culture (SILAC)[43]. […]
visualization were performed as described above. Images were quantified with ImageJ and kinetics values were calculated using GraphPad Prism (V6.03). […]

PPARγ = details: cited from earlier work

T1 sequence (Q9BTY7 whole entry): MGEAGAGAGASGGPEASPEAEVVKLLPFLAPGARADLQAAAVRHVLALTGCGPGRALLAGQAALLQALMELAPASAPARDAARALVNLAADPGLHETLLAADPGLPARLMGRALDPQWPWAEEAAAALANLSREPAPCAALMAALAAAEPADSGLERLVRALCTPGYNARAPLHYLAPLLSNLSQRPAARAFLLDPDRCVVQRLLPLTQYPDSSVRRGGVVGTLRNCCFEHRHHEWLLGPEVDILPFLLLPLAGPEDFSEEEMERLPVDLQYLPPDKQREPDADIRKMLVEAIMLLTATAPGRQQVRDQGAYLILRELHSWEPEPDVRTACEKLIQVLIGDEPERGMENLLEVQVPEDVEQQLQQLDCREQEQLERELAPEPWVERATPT

C=C(C)C(=O)O[C@H]1CC2=C[C@@H](C/C(C)=C/[C@H]3OC(=O)C(=C)[C@H]13)OC2=O [deoxyelephantopin]
SILAC ratio 20 µM Deoxyelephantopin/DMSO with 24c [1]: 0.20 | action on PPARγ (SPR) (PPARγ): partial agonist

From article PMC4992173, “Divergent synthesis and identification of the cellular targets of deoxyelephantopins” (Nature Communications, 2016)
